This note sets out measurements from patent publication US12522601B2, “1,3,4-oxadiazole derivative compounds as histone deacetylase 6 inhibitor, and the pharmaceutical composition comprising the same” (CHONG KUN DANG PHARMACEUTICAL CORP., priority 2020, dated 2026).

Bounds are passed on as bounds.

One assay has as its target T1, human recombinant HDAC6 (Homo sapiens, UniProt Q9UBN7).
T1 construct: purchased Calbiochem Inc. 382180
T1 sequence (Q9UBN7 1-1215): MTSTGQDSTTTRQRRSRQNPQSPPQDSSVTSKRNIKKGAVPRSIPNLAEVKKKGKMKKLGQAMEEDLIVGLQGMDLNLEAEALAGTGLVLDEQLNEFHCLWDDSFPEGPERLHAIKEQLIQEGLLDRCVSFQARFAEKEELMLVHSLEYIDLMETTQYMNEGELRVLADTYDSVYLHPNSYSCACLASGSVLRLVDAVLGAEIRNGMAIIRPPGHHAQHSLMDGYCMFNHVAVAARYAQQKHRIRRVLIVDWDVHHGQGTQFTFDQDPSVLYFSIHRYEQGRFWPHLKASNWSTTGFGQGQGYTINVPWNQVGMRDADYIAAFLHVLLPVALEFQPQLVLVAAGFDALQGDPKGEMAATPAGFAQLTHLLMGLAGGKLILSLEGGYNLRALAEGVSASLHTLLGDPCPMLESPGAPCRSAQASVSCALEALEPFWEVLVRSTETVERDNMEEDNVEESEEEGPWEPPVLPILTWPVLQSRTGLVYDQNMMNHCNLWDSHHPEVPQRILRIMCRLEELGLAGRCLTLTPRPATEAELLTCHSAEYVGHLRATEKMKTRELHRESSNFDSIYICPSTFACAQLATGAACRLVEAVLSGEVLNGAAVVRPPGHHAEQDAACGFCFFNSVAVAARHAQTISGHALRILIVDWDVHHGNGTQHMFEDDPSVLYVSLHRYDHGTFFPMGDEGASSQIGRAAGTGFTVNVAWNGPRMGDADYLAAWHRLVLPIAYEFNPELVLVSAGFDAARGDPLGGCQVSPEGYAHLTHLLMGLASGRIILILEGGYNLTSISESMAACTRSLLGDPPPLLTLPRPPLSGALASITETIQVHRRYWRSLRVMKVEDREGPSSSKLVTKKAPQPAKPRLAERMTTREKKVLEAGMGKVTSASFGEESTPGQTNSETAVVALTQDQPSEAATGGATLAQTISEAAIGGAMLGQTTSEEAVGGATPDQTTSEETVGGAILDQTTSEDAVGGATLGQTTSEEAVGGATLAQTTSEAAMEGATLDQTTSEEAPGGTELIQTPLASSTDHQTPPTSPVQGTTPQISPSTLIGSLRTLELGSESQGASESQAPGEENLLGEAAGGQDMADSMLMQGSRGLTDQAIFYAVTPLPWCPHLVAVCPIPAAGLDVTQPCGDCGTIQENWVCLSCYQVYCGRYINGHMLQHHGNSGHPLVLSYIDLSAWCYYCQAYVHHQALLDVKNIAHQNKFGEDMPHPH
Put plainly: In vitro HDAC enzyme activity inhibition assay, HDAC6 (HDAC Fluorimetric Drug Discovery Kit). To be noted: for HDAC6 Selectivity (fold): HDAC6 versus HDAC1; for IC50: human recombinant HDAC6, same protocol as the HDAC1 test. Type of assay: biochemical. The method, boiled down:
(§1)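 Both HDAC1 and HDAC6 (human recombinant, 0.3 μg) tested identically: 10 μM fluorogenic Fluor de Lys-SIRT1 substrate, reaction 60 min at 30° C, developer added for 30 min. IC50 calculated from Ex 360/Em 460 signal over 5-fold serial dilutions.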

The target in another assay is T2, human recombinant HDAC1 (Homo sapiens, UniProt Q13547).
T2 construct: purchased Enzo Life Sciences, Inc. BML-SE456
T2 sequence (Q13547 whole entry): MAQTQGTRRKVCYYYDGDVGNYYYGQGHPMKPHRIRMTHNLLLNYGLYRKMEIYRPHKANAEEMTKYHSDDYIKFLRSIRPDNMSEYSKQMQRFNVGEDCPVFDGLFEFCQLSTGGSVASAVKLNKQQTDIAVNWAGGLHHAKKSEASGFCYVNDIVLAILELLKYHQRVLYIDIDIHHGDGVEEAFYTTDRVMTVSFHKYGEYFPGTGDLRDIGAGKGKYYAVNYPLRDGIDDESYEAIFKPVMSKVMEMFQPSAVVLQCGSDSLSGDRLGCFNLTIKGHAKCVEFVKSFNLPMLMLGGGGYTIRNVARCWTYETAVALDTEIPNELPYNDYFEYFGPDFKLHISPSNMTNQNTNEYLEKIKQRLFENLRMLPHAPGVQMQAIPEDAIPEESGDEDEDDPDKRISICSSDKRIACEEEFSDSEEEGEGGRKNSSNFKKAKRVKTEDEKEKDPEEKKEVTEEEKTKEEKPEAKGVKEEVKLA
Nature of the assay: In vitro HDAC enzyme activity inhibition assay, HDAC1 (HDAC Fluorimetric Drug Discovery Kit). To be noted: human recombinant HDAC1, Fluor de Lys-SIRT1 substrate 10 μM, 30° C. for 60 minutes. Format: biochemical. An outline of the steps:
as §1

As for `O=C(C1COC1)N1CCN(C(=O)N(Cc2cn3ccc(-c4nnc(C(F)F)o4)cc3n2)c2ccccc2)CC1` [Compound 4102, N-((7-(5-(difluoromethyl)-1,3,4-oxadiazol-2-yl)imidazo[1,2-a]pyridin-2-yl)methyl)-4-(oxetan-3-carbonyl)-N-phenylpiperazine-1-carboxamide], on human recombinant HDAC6, the “HDAC6 Selectivity (fold)” value came out at 164 fold and the IC50 was determined as 305 nM. For the same compound, the IC50 at human recombinant HDAC1 was above 50000 nM.

In the case of `CN(C)C(=O)N1CCC(C(=O)N(Cc2cn3ccc(-c4nnc(C(F)F)o4)cc3n2)c2ccccc2)CC1` [Compound 4130, N4-((7-(5-(difluoromethyl)-1,3,4-oxadiazol-2-yl)imidazo[1,2-a]pyridin-2-yl)methyl)-N1,N1-dimethyl-N4-phenylpiperidine-1,4-dicarboxamide], on human recombinant HDAC6, the “HDAC6 Selectivity (fold)” value is 133 fold and the IC50 is 375 nM. Also, the IC50 on human recombinant HDAC1 was above 50000 nM.

On to `O=C(C1CN(C2CCC2)C1)N(Cc1cn2ccc(-c3nnc(C(F)F)o3)cc2n1)c1cccc(F)c1` [Compound 4192, 1-cyclobutyl-N-((7-(5-(difluoromethyl)-1,3,4-oxadiazol-2-yl)imidazo[1,2-a]pyridin-2-yl)methyl)-N-(3-fluorophenyl) azetidine-3-carboxamide], for which the “HDAC6 Selectivity (fold)” value on human recombinant HDAC6 was found to be 452 fold. Moreover, the half-inhibitory concentration (IC50) on human recombinant HDAC6 is 111 nM; on human recombinant HDAC1, above 50000 nM.

In the case of `Cc1cccc(NCc2cn3ccc(-c4nnc(C(F)F)o4)cc3n2)c1` [Compound 3679, N-((7-(5-(difluoromethyl)-1,3,4-oxadiazol-2-yl)imidazo[1,2-a]pyridin-2-yl)methyl)-3-methylaniline], on human recombinant HDAC6, the “HDAC6 Selectivity (fold)” value amounted to 341 fold and the IC50 came to 147 nM. Also, the half-maximal inhibitory concentration (IC50) at human recombinant HDAC1 was above 50000 nM.

For the compound `COc1ccc(Cc2cn3ccc(-c4nnc(C(F)F)o4)cc3n2)cc1` [Compound 3590], on human recombinant HDAC6, the “HDAC6 Selectivity (fold)” value came to 116 fold and the concentration for half-maximal inhibition (IC50) worked out at 432 nM. The IC50 on human recombinant HDAC1 was above 50000 nM.

In the case of `FC(F)c1nnc(-c2ccn3cc(CNc4ccc(C(F)(F)F)cc4)nc3c2)o1` [Compound 3673, N-((7-(5-(difluoromethyl)-1,3,4-oxadiazol-2-yl)imidazo[1,2-a]pyridin-2-yl)methyl)-4-(trifluoromethyl)aniline], on human recombinant HDAC6, the “HDAC6 Selectivity (fold)” value worked out at 125 fold and the concentration for half-maximal inhibition (IC50) came out at 400 nM. Further, the IC50 on human recombinant HDAC1 was above 50000 nM.

In the case of `CC(=O)N1CCC(C(=O)N(Cc2cn3ccc(-c4nnc(C(F)F)o4)cc3n2)c2cccc(F)c2)CC1` [Compound 4146, 1-acetyl-N-((7-(5-(difluoromethyl)-1,3,4-oxadiazol-2-yl)imidazo[1,2-a]pyridin-2-yl)methyl)-N-(3-fluorophenyl)piperidine-4-carboxamide], at human recombinant HDAC6, the “HDAC6 Selectivity (fold)” value came to 206 fold and the IC50 turned out to be 243 nM. The half-maximal inhibitory concentration (IC50) at human recombinant HDAC1 was above 50000 nM.

In the case of `CCN1CCC(C(=O)N(Cc2cn3ccc(-c4nnc(C(F)F)o4)cc3n2)c2cccc(F)c2)CC1` [Compound 4138, N-((7-(5-(difluoromethyl)-1,3,4-oxadiazol-2-yl)imidazo[1,2-a]pyridin-2-yl)methyl)-1-ethyl-N-(3-fluorophenyl)piperidine-4-carboxamide], on human recombinant HDAC6, the “HDAC6 Selectivity (fold)” value turned out to be 292 fold and the IC50 was 171 nM. In addition, the IC50 on human recombinant HDAC1 is above 50000 nM.

On to `O=C(C1COC1)N1CC(C(=O)N(Cc2cn3ccc(-c4nnc(C(F)F)o4)cc3n2)c2ccccc2)C1` [Compound 4171, N-((7-(5-(difluoromethyl)-1,3,4-oxadiazol-2-yl)imidazo[1,2-a]pyridin-2-yl)methyl)-1-(oxetan-3-carbonyl)-N-phenylazetidine-3-carboxamide], for which the “HDAC6 Selectivity (fold)” value on human recombinant HDAC6 is reported as 141 fold. The concentration for half-maximal inhibition (IC50) is 355 nM on human recombinant HDAC6 and above 50000 nM at human recombinant HDAC1.

In the case of `CC(C)(C)OC(=O)N1CCN(C(=O)N(Cc2cn3ccc(-c4nnc(C(F)(F)F)o4)cc3n2)c2cccc(F)c2)CC1` [Compound 6892, tert-butyl 4-((3-fluorophenyl) ((7-(5-(trifluoromethyl)-1,3,4-oxadiazol-2-yl)imidazo[1,2-a]pyridine-2-yl)methyl)carbamoyl)piperazine-1-carboxylate], on human recombinant HDAC6, the “HDAC6 Selectivity (fold)” value turned out to be 21.2 fold and the IC50 turned out to be 2360 nM. Besides, the 50% inhibitory concentration (IC50) on human recombinant HDAC1 is above 50000 nM.

With `O=C(C1CCC1)N1CCC(C(=O)N(Cc2cn3ccc(-c4nnc(C(F)F)o4)cc3n2)c2ccccc2)CC1` [Compound 4125, 1-(cyclobutanecarbonyl)-N-((7-(5-(difluoromethyl)-1,3,4-oxadiazol-2-yl)imidazo[1,2-a]pyridine-2-yl)methyl)-N-phenylpiperidine-4-carboxamide], the “HDAC6 Selectivity (fold)” value on human recombinant HDAC6 amounted to 152 fold. The IC50 was 329 nM on human recombinant HDAC6 and above 50000 nM at human recombinant HDAC1.

Usually IC50 stands for the concentration needed to halve the response being measured.
